Assays:
basophils = assay: Basophil histamine release assay; format: cell-based, human
Experimental: Assessment of the effect of a compound of the invention on basophil function was tested using a conventional histamine release assay, generally in accordance with the method described in Miura et al., J Immunol, 162:4198-206 (1999). Briefly, enriched basophils were preincubated with test compounds at several concentrations from 0.1 nM to 1,000 nM, for 10 min at 37° C. Then, polyclonal goat antihuman IgE (0.1 μg/mL) or fMLP was added, and allowed to incubate for an additional 30 min. Histamine released into the supernatant was measured using an automated fluorometric technique. Two compounds were tested, shown below.

osteoclasts = assay: Osteoclast function, pit depths on dentine slices; format: cell-based, mouse
Experimental: To analyze the effect of the PI3Kδ inhibitor D-000 on osteoclasts, mouse bone marrow cells were isolated and differentiated them to osteoclasts by treating the cells with Macrophage Colony Stimulating Factor^−1 (mCSF^−1) and Osteoprotegerin Ligand (OPGL) in serum-containing medium (αMEM with 10% heat-inactivated FBS; Sigma) for 3 days. On day four, when the osteoclasts had developed, the medium was removed and cells were harvested. The osteoclasts were plated on dentine slices at 10^5 cells/well in growth medium, i.e., αMEM containing 1% serum and 2% BSA with […] and 10 ng/mL mCSF-1. After 3 hr, the medium was changed to 1% serum and 1% BSA, with or without osteopontin (25 μg/mL) and the PI3K inhibitors (100 nM). The medium was changed every 24 hours with fresh osteopontin and the inhibitors. At 72 hr, the medium was removed, and the dentine surfaces were washed with water to remove cell debris and stained with acid hematoxylin. Excess stain was washed and the pit depths were quantitated using confocal microscopy.

MEG-01 = assay: Cancer cell proliferation, [3H]-thymidine incorporation, MEG-01; format: cell-based; conditions: MEG-01 line; 0.001 μM to 20 μM
Experimental: (§1) The effect of compounds of the invention on cancer cell proliferation was evaluated by testing one of the compounds against a panel of Chronic Myeloid Leukemia (CML) cell lines, including KU812, RWLeu4, K562, and MEG-01.
(§2) The inhibitory activity of the compound (D-000, dissolved in DMSO) was determined as follows. The tested compound was added in a series of concentrations (0.001 μM to 20 μM) to 96-well microtiter plates with cells (1000 to 5000 cells/well). Plates were incubated for five days at 37° C. during which the control cultures without test compound were able to undergo at least two cell-division cycles. Cell growth was measured by incorporation of [^3H]-thymidine for eighteen hours added at days three, four, and five. Cells were transferred to a filter, washed and the radioactivity counted using a Matrix 96 beta counter (Packard). The percentage of cell growth was measured as follows: […]

K562 = assay: Cancer cell proliferation, [3H]-thymidine incorporation, K562; format: cell-based; conditions: K562 line; 0.001 μM to 20 μM
Experimental: as §1, §2

human neutrophils [1] = assay: Superoxide production from neutrophils (cytochrome C reduction); format: cell-based
Experimental: Aliquots (8 mL) of heparinized blood from healthy volunteers were layered on 3 mL cushions of 7.3% FICOLL® (Sigma, St. Louis, Mo.) and 15.4% HYPAQUE® (Sigma) and centrifuged at 900 rpm for 30 min at room temperature in a table top centrifuge (Beckman). The neutrophil-rich band just above the FICOLL®-HYPAQUE® cushion was collected and washed with Hanks' balanced salt solution (HBSS) containing 0.1% gelatin. Residual erythrocytes were removed by hypotonic lysis with 0.2% NaCl. The neutrophil preparation was washed twice with HBSS containing 0.1% gelatin and used immediately.
Superoxide generation is one of the hallmarks of neutrophil activation. A variety of activators potentiate superoxide generation by neutrophils. The effect of the PI3Kδ inhibitor D-000 on superoxide generation by three different agonists: TNF1α, IgG, and fMLP, each representing separate classes of activator, was measured. Superoxide generated by the neutrophils was measured by monitoring the change in absorbance upon reduction of cytochrome C by modification of the method described by Green et al., (pp. 14.5.1-14.5.11 in Supp. 12, Curr Protocols Immunol (Eds., Colligan et al.) (1994)), as follows. Individual wells of a 96-well plate were coated overnight at 4° C. with 50 μL of 2 mg/mL solution of human fibrinogen or IgG. The wells were washed with PBS and the following reagents were added to each well: 50 μL of HBSS or superoxide dismutase (1 mg/mL), 50 μL of HBSS or TNF1α (50 ng/mL), 50 μL cytochrome C (2.7 mg/mL), and 100 μL of purified human neutrophil suspension ([…] cells/mL). The plate was centrifuged for 2 min at 200 rpm and absorbance at 550 nm was monitored for 2 hr. To measure the relative amounts of superoxide generated, values obtained from the superoxide dismutase-containing wells were subtracted from all, and normalized to the values obtained from the wells without any inhibitor.

human neutrophils [2] = assay: Bactericidal capacity of neutrophils (Staphylococcus aureus killing); format: cell-based; conditions: FIG. 6; versus DMSO control
Description: Given that the PI3Kδ inhibitor D-000 affects certain neutrophil functions detailed above, it was of interest to see whether the compound affects neutrophil-mediated bacterial killing. The effect of D-000 on neutrophil-mediated Staphylococcus aureus killing was studied according to the method described by Clark and Nauseef (pp. 7.23.4-7.23.6 in Vol. 2, Supp. 6, Curr Protocols Immunol (Eds., Colligan et al.) (1994)). Purified human neutrophils (5×10^6 cells/mL) (treated with either DMSO or a serial dilution of D-000 in DMSO) were mixed with autologous serum. Overnight-grown S. aureus cells were washed, resuspended in HBSS, and added to the serum-opsonized neutrophils at a 10:1 ratio. Neutrophils were allowed to internalize the bacteria by phagocytosis by incubation at 37° C. for 20 min. The noninternalized bacteria were killed by 10 units/mL lysostaphin at 37° C. for 5 min and the total mixture was rotated at 37° C. Samples were withdrawn at various times for up to 90 min and the neutrophils were lysed by dilution in water. Viable bacteria were counted by plating appropriate dilutions on trypticase-soy-agar plate and counting the S. aureus colonies after overnight growth.

RWLeu4 = assay: Cancer cell proliferation, [3H]-thymidine incorporation, RWLeu4; format: cell-based; conditions: Homo sapiens, 120 h; RWLeu4 line; five days; read-out: EC50, inhibition of cell growth
Experimental: as §1, §2

Compound: O=c1c2ccccc2nc(CSc2ncnc3[nH]ncc23)n1-c1ccccc1Cl [Compound D-999, 3-(2-Chlorophenyl)-2-(1H-pyrazolo[3,4-d]pyrimidin-4-ylsulfanylmethyl)-3H-quinazolin-4-one, reference compound]
- Efficacy in the inhibition of histamine release compared with D-026 (basophils; anti-IgE): less efficacious
- Effect on histamine release, basophils stimulated with fMLP (basophils; fMLP stimulus): Neither compound elicited any effect

Compound: O=c1c2ccccc2nc(CSc2ncnc3[nH]cnc23)n1-c1ccccc1Cl [Compound D-000, 3-(2-chlorophenyl)-2-(9H-purin-6-ylsulfanylmethyl)-3H-quinazolin-4-one]
- Effect on osteoclast activity (osteoclasts; 100 nM): almost completely inhibited
- Pit depths (osteoclast activity), Table 1 (osteoclasts; inhibitor 100 nM + osteopontin (OPN) 25 μg/mL, 72 hr, two experiments, OPN alone 10 ± 0.5 and 9 ± 0.4): 1
- Effect on cell growth (MEG-01): not found to exhibit an effect
- Effect on cell growth (K562): not found to exhibit an effect
- IC50 (human neutrophils [1]; Homo sapiens, Neutrophil, TNF stimulus, FIG. 2, read-out: Concentration reducing TNF-induced superoxide generation to its half-maximal value): ~3 µM
- Effect on superoxide generation induced by IgG (human neutrophils [1]; IgG stimulus, at 10 μM, FIG. 2): did not have any effect
- Effect on fMLP-induced superoxide generation (human neutrophils [1]; fMLP stimulus, FIG. 3): inhibited
- Effect on neutrophil-mediated killing of S. aureus (human neutrophils [2]): does not significantly affect
- EC50 (RWLeu4): ~2 µM
